Test results taken from patent publication US9540418B2, “Polypeptide specifically binding to rare earth nanoparticles and use thereof” (University of Science and Technology of China, priority 2012, dated 2017).
Ends that are not written are not given here.

What was measured:
[1] = Competitive inhibition of REOB-1 phage binding to Nd2O3 by polypeptides (IC50); conditions: 100 μg Nd2O3, REOB-1 phages at a titer of 108, 2 hr incubation; read-out: IC50 (μM)* of polypeptides competitively inhibiting the binding of REOB-1 phages to Nd2O3 nanoparticles
Method: 100 μg Nd2O3 was mixed with the polypeptides, RE-1, AP-1, RE-2, RE-3, RE-4, RE-5, RE-6, RE-7, RE-8, RE-9, RE-10, etc., respectively. To the mixture, REOB-1 phages at a titer of 108 were added. After 2 hr of incubation, the number of REOB-1 phages binding to Nd2O3 was measured. IC50 value indicated the relative activity of various polypeptides competitively inhibiting the binding of REOB-1 phages to Nd2O3 nanoparticles. The polypeptide RE-1 and its analogues had different binding ability to Nd2O3.

[2] = system: LC3 II in HeLa cells; experiment: Western blotting of LC3 in HeLa cells; type: cell-based; conditions: 100 μg/mL UCP+AP-1
Method: (§1) Western blotting is performed as follows: After an incubation of 24 h, the cells are collected and lysed with lysis buffer (purchased from Beyotime Biotechnology, China). The lysate is boiled in boiling water for 10 min, subjected to 15% SDS-PAGE, and then transferred to nylon membrane (purchased from Amersham Inc.) by a wet transfer. In the Western blotting, Anti-LC3 (Light Chain 3 Protein Antibody, purchased from Novus Inc., Catalog #: NB 100-2220) is used as primary antibody; GAPDH (purchased from Millipore Inc.) is used as internal reference; and Horseradish peroxidase (HRP) conjugated goat anti-rabbit IgG (H+L) (Goat Anti-Rabbit IgG (H+L), HRP Conjugate) (purchased from Promega Inc.) is used as secondary antibody.
HeLa cells were inoculated into a 24-well cell culturing plate at a density of about 3-5×10^4 cells/well, and cultured overnight for further use. At first, the medium was replaced with fresh DMEM medium, and then 100 μg/mL UCN or UCN+RE-1 was added. An equal volume of PBS was used as blank. A mixture of 100 μg/mL UCN and 10 mg/mL PEG was used as negative control. 100 mM trehalose was used as positive control. Then, western blotting assay was performed.
HeLa cells were inoculated into a 24-well cell culturing plate at a density of about 3-5×10^4 cells/well, and cultured overnight for further use. At first, the medium was replaced with fresh DMEM medium, and then 100 μg/mL UCP or UCP+RE-1 was added. An equal volume of PBS was used as blank. A mixture of 100 μg/mL UCP+AP-1 and a mixture of 400 μg/mL TiO2+AP-1 were used as negative control. 400 μg/mL TiO2 was used as positive control. Then, western blotting assay was performed.

[3] = system: LC3 type II in mice liver; experiment: Western blotting of LC3 in mice livers after tail vein injection; type: in vivo; conditions: UCP+AP-1, tail vein, 24 hr
Method: as §1
(§2) Balb/c mice (purchased from SLAC Laboratory Animal (Shanghai, China), 6 weeks old, and weighed 20 g when used) were bred in a sterile housing, and then 300 μg (dosage: 15 mg/kg) UCN, UCN+PEG (containing 10 mg PEG), UCN+RE-1, UCP, UCP+RE-1, or UCP+AP-1 was injected through tail vein. An equal volume of normal saline was injected as a control. After 24 hr, the livers of the mice were removed and subjected to western blotting assay.

[4] = system: mice liver; experiment: Autophagosome formation in mice livers by transmission electron microscope; type: in vivo, Balb/c mice; conditions: RE-1 with UCN, PEG with UCN, AP-1 with UCP
Method: as §2
(§3) The mice livers obtained as described in Example 21 were in situ fixed with 2.5% glutaral-dimethyl arsine buffer (pH 7.4) at 4° C. for 1 hr, then fixed with 2% osmium tetroxide at room temperature for 1 hr, and then dehydrated with ethanol gradients. Then, the cell samples were embedded into epoxy resin (EPON812). The embedded cell samples were cut into ultrathin slices, which were stained with uranyl acetate and lead citrate, and observed and imaged under a transmission electron microscope (JEOL-1230, JEOL, Japan).

[5] = system: mice liver; experiment: Liver damage in mice livers (HE staining); type: in vivo, Balb/c mice; conditions: UCP+RE-1 or UCP+AP-1, tail vein, 24 hr
Method: as §2
as §3, with “in paraffin.” for “into epoxy resin (EPON812).”, “HE (hematoxylin-eosin),” for “uranyl acetate and lead citrate,”, “fluorescence microscope.” for “a transmission electron microscope (JEOL-1230, JEOL, Japan).”

[6] = system: HeLa cells; experiment: Adherence of UCN coated with RE-1 or RE-1-RGD to HeLa cells; type: cell-based; conditions: 37° C., 2 hr, versus uncoated
Method: HeLa cells were cultured on a coverslip (22 mm×22 mm), which was then placed into a 6-well plate with the cells facing upward or downward, and the coverslip was supported by a sterilized glass cube (2 mm×2 mm×2 mm). Then, 4 mL of DMEM medium containing the rare-earth upconversion nanophosphors coated with RE-1 or RE-1-RGD or without any coating was slowly poured into the 6-well plate, such that the cells were fully immersed in the medium, and the coverslip was just located at the middle of the height of the liquid. The cells were placed into a cell incubator at 37° C. for 2 hr, and then washed with PBS 3 times. The UCNs adhered to the surfaces of the cells were observed under a fluorescence microscope (Olympus IX71, Olympus, Japan) equipped with a 980-nm infrared laser (MDL-980 nm 1 W, Changchun New Industries Optoelectronics Tech. Co., Ltd, China).

[7] = system: HeLa-LC3 cells; experiment: RE-1-RGD effect on UCN-induced autophagy (LC3 dot-like aggregates and vacuoles); type: cell-based; conditions: 100 μg/mL RE-1-RGD-coated UCN, 24 hr
Method: UCN coated with RE-1-RGD was prepared as follows: 50 μg RE-1-RGD and 100 μg UCN were mixed, incubated at 37° C. for 2 hr, and then centrifuged at 12000 rpm. The resultant precipitate was washed with water for 3 times to remove the excess and unbound RE-1-RGD peptides. Then, the precipitate was resuspended in 100 μL water for further use.
HeLa-LC3 cells were inoculated into a 96-well cell culture plate at a density of about 1-2×10^4 cells/well, and cultured overnight for further use. At first, the medium was replaced with fresh DMEM medium, and then 100 μg/mL UCN, UCN+RE-1, and UCN+RE-1-RGD were added, respectively. An equal volume of PBS was used as blank. After culturing for 24 hr, LC3 dot-like aggregates and vacuoles in the cells were observed and imaged under a fluorescence microscope.

[8] = system: LC3 II in HeLa cells; experiment: RE-1-RGD effect on UCN-induced autophagy (western blotting LC3 II); type: cell-based; conditions: 100 μg/mL RE-1-RGD-coated UCN
Method: as §1
HeLa cells were inoculated into 24-well cell culture plate at a density of about 3-5×10^4 cells/well, and cultured overnight for further use. At first, the medium was replaced with fresh DMEM medium, and then 100 μg/mL UCN, UCN+PEG (containing 10 mg PEG), UCN+RE-1, and UCN+RE-1-RGD were added, respectively. An equal volume of PBS was used as blank. 100 mM trehalose was used as positive control. Then, western blotting assay was performed.

[9] = system: HeLa cells; experiment: RE-1-RGD effect on cytotoxicity induced by UCN (MTT, PI staining); type: cell-based; conditions: 1 mg/mL RE-1-RGD-coated UCN, 24 hr, MTT and PI staining
Method: (§4) MTT cell vitality assay is performed as follows: The cells to which samples have been added are cultured for 24 hr, and then 0.5 mg/mL MTT solution is added and cultured for 4 hr. The MTT solution in the well is discharged, and then 200 μL DMSO is added, followed by gently shaking the plate on a shaking table for 10 min. Detection is performed using microplate reader (ELX800, purchased from BIO-TEK) at a wavelength of 570 nm.
(§5) PI staining assay is performed as follows: The cells to which samples have been added are cultured for 24 hr, and then to the culture Hoechst 33342 (10 mM, purchased from Sigma, USA, Catalog #: B2261) and PI (Propidium Iodide) (10 mM, purchased from Beyotime Biotechnology, Catalog #: ST511) are added for 10 min of staining. Then, the cells are detected and photographed under a fluorescence microscope (Olympus IX71, purchased from Olympus). The number of the cells counted by this assay was 500.
(§6) HeLa cells were inoculated into 96-well cell culturing plate at a density of about 1-2×10^4 cells/well, and cultured overnight for further use. At first, the medium was replaced with fresh DMEM medium, and then 1 mg/mL UCN, UCN+RE-1, and UCN+RE-1-RGD were added, respectively. After culturing for 24 hr, MTT cell viability assay and PI staining were performed to detect the mortality of the cells.

[10] = system: HeLa-LC3 cells; experiment: RE-1 analogues blocking nanophosphor-induced autophagy (LC3 aggregates and vacuoles); type: cell-based; conditions: 24 hr; for inhibition of GFP-LC3 dot-like aggregation and cytoplasm vacuolation induced by UCN: 100 μg/mL UCN coated or mixed; for rank of ability after coating UCN to inhibit cell autophagy induced by UCN: 100 μg/mL
Method: UCN and UCP coated with RE-1 analogues RE-2, RE-3, or RE-5 were prepared as follows: 50 μg or 10 μg RE-1 analogues RE-2, RE-3, or RE-5 was mixed with 100 μg UCN or UCP, respectively, incubated at 37° C. for 2 hr, centrifuged at 12000 rpm, and then washed with water 3 times to remove the excess and unbound peptides. The resultant precipitate was resuspended in 100 μL water.
HeLa-LC3 cells were inoculated into a 96-well cell culture plate at a density of about 1-2×10^4 cells/well, and cultured overnight for further use. At first, the medium was replaced with fresh DMEM medium, and then 100 μg/mL UCN, UCN+RE-1, UCN+RE-2, UCN+RE-3, or UCN+RE-5 was added. An equal volume of PBS was used as blank. A mixture of 100 μg/mL UCN and 10 mg/mL PEG was used as negative control. A mixture of 100 mM trehalose and 50 μg RE-1 was used as positive control. After culturing for 24 hr, a fluorescence microscope was used to observe, image, and count.
HeLa-LC3 cells were inoculated into a 96-well cell culture plate at a density of about 1-2×10^4 cells/well, and cultured overnight for further use. At first, the medium was replaced with fresh DMEM medium, and then 100 μg/mL UCP, UCP+RE-1, UCP+RE-2, UCP+RE-3, or UCP+RE-5 was added. An equal volume of PBS was used as blank. After culturing for 24 hr, a fluorescence microscope was used to observe, image, and count.
The ability to induce cell autophagy was estimated by determining the numbers of LC3 aggregates and vacuoles.

[11] = system: HeLa cells; experiment: Effect of RE-1 analogues on cytotoxicity induced by UCN, UCP (MTT, PI staining); type: cell-based; conditions: 1 mg/mL, 24 hr
Method: as §4, §5
as §6, with “UCN, UCP, UCN+PEG (containing 10 mg PEG),” for “UCN,”, “UCP, UCP+RE-1, UCN+RE-2, UCN+RE-3, UCN+RE-5, UCP+RE-2, UCP+RE-3, or UCP+RE-5” for “and UCN+RE-1-RGD”

## ACNATLPHQCG [AP-1, same terminal amino acids but irrelevant amino acids therebetween, reference compound]
[1]
  IC50: > 5000 µM
[2]
  inhibition of ability of nanophosphor to induce cell autophagy by AP-1: not for AP-1
[3]
  inhibition of ability of UCP to induce autophagy in liver: could not inhibit
[4]
  inhibition of autophagosome formation induced by nanophosphors (UCN, UCP) in liver: did not
[5]
  effect of coating on liver damage induced by UCP: showed no such effect

## ACTARSPWACG [RE-10, RE-1 9I→A]
[1]
  IC50: 71.5 ± 5.1 µM

## AATARSPWICG [RE-4, RE-1 2C→A]
[1]
  IC50: 270 ± 8.67 µM

## CRGDCGGACTARSPWICG [RE-1-RGD, RE-1 and tumor cell-targeting peptide RGD]
[6]
  number of coated upconversion nanophosphors adhered to the surface of the cells: significantly higher
[7]
  LC3 dot-like aggregates and vacuoles in cells versus UCN group: significantly increased
[8]
  LC3 II in the cells: significantly increased
[9]
  cell mortality versus group treated with UCN: significantly higher

## ACTARAPWICG [RE-7, RE-1 65→A as printed]
[1]
  IC50: 83.9 ± 6.65 µM

## ACTARSPAICG [RE-9, RE-1 8W→A]
[1]
  IC50: 86.7 ± 8.07 µM

## ACAARSPWICG [RE-5, RE-1 3T→A]
[1]
  IC50: 689 ± 8.38 µM
[10]
  inhibition of GFP-LC3 dot-like aggregation and cytoplasm vacuolation induced by UCN: did not inhibit
  rank of ability after coating UCN to inhibit cell autophagy induced by UCN: RE-1>RE-3>RE-5
[11]
  inhibitory effect of coating on cytotoxicity induced by UCN and UCP: RE-1>RE-3>RE-5

## ACTAASPWICG [RE-6, RE-1 5R→A]
[1]
  IC50: 78.4 ± 7.07 µM

## ACTARSAWICG [RE-8, RE-1 7P→A]
[1]
  IC50: 440 ± 8.48 µM

## ACWPATRISCG [RE-3, order of 7 middle amino acids of RE-1 disrupted]
[1]
  IC50: 64.3 ± 2.33 µM
[10]
  inhibition of GFP-LC3 dot-like aggregation and cytoplasm vacuolation induced by UCN: exhibited an inhibitory effect
  rank of ability after coating UCN to inhibit cell autophagy induced by UCN: RE-1>RE-3>RE-5
[10]; 100 μg/mL UCN coated
  reduction of GFP-LC3 dot-like aggregation induced by UCN: 21%
  reduction of cytoplasm vacuolation induced by UCN: 50%
[11]
  inhibitory effect of coating on cytotoxicity induced by UCN and UCP: RE-1>RE-3>RE-5

## TARSPWI [RE-2, TARSPWI]
[1]
  IC50: 1307 ± 6.5 µM
[10]
  inhibition of GFP-LC3 dot-like aggregation and cytoplasm vacuolation induced by UCN: did not inhibit
  rank of ability after coating UCN to inhibit cell autophagy induced by UCN: substantially no inhibitory effect
[11]
  inhibitory effect of coating on cytotoxicity induced by UCN and UCP: nearly showed no inhibitory effect
